Assays:
Assay type in all cases: cell-based, rat
RGC-5 [1] = assay: Annexin-V assay (flow cytometry), TNF-α-induced apoptosis; conditions: 50 ng/mL of TNF-α
Experimental: The RGC-5 cell line, which is an RGC line developed from post-natal Sprague-Dawley rats, was grown in modified DMEM (Gibco) supplemented with 10% of heat inactivated fetal bovine serum (Gibco) and 100 U/mL of penicillin and 100 μg/mL of streptomycin (Gibco). The cells were passaged every 2 to 3 days and incubated at 37° C. in 5% of CO2 and air. At cultivation, the cells had the same morphology. For all experiments, cells were used at 80% of confluence.
After washing twice with PBS, cells were cultured in serum-free DMEM and treated with either 10 or 50 ng/mL of recombinant rat TNF-α (Chemicon) for up to 48 hours. The control cells were not exposed to TNF-α. 100 μM of agmatine was added to the culture medium at the start of injury as indicated.
The percentage of cells actively undergoing apoptosis was determined by flow cytometry using the Annexin V-FITC Apoptosis Detection Kit (BD Biosciences, Cat no. 556547) according to the manufacturer's instructions. Briefly, cells were harvested and resuspended in binding buffer (10^6 cells/mL). 10^5 cells were mixed with 5 μL of annexin V-FITC and 5 μL of PI. After incubating at room temperature for 15 minutes in the dark, analysis was performed by flow cytometry.

RGC-5 [2] = assay: Annexin-V assay (flow cytometry), hypoxia-induced apoptosis; conditions: agmatine 100 μM or BDNF 10 ng/ml
Experimental: The RGC-5 cell line, which is a RGC line developed from post-natal Sprague-Dawley rats, was grown in modified Dulbecco's Modified Eagle's Medium (DMEM; Gibco) supplemented with 10% of heat inactivated fetal bovine serum (Gibco) and 100 U/mL of penicillin and 100 μg/mL of streptomycin (Gibco). The cells were passaged every 2 to 3 days, and the cultures incubated at 37° C. in 5% of CO2 and air. […] For all experiments, cells were used at an 80% confluence. Cultures were transferred into a closed hypoxic chamber (Form a Scientific Co.) in which oxygen level (5% of O2, 5% of CO2, 90% of N2) and temperature (37° C.) were controlled. After washing twice with deoxygenated serum-free DMEM, cells were maintained in the hypoxic chamber. Control cells were not exposed to hypoxia. Agmatine or BDNF were added to the culture medium at the start of injury as indicated. The percentage of cells actively undergoing apoptosis was determined by flow cytometry using the Annexin V-FITC Apoptosis Detection Kit (BD Biosciences, Cat no. 556547) according to the manufacturer's instructions. Briefly, cells were harvested and resuspended in binding buffer (10^6 cells/mL). 10^5 cells were mixed with 5 μL of annexin V-FITC and 5 μL of PI. After incubating at room temperature for 15 minutes in the dark, analysis was performed by flow cytometry.

NF-κB = assay: Western blot, NF-κB in nuclear and cytosolic fraction of hypoxic RGC-5; conditions: for increase in phospho-NF-κB, nuclear fraction / increase in total NF-κB expression, cytoplasmic fraction: hypoxia 1 hour; for total NF-κB and histone 3, nuclear fraction: hypoxic RGC-5
Experimental: The RGC-5 cell line, which is a RGC line developed from post-natal Sprague-Dawley rats, was grown in modified Dulbecco's Modified Eagle's Medium (DMEM; Gibco) supplemented with 10% of heat inactivated fetal bovine serum (Gibco) and 100 U/mL of penicillin and 100 μg/mL of streptomycin (Gibco). The cells were passaged every 2 to 3 days, and the cultures incubated at 37° C. in 5% of CO2 and air. […] For all experiments, cells were used at an 80% confluence. Cultures were transferred into a closed hypoxic chamber (Form a Scientific Co.) in which oxygen level (5% of O2, 5% of CO2, 90% of N2) and temperature (37° C.) were controlled. After washing twice with deoxygenated serum-free DMEM, cells were maintained in the hypoxic chamber. Control cells were not exposed to hypoxia. Agmatine or BDNF were added to the culture medium at the start of injury as indicated. For fraction of cytosolic and nuclear proteins, cells were lysed with lysis buffer A (10 mM of HEPES (pH 7.4), 10 mM of KCl, 0.1 mM of EDTA, 0.1 mM of EGTA, 1 mM of DTT, 10 mM of Na3VO4, 50 mM of NaF, 1 mM of PMSF, 1 μg/mL of aprotinin, 1 μg/mL of leupeptin, 1 μg/mL of pepstatin) on ice for 15 minutes, and 10% of NP-40 was then added thereto. After vortexing for 10 seconds, lysates were centrifuged at 15,000 g at 4° C. for 1 minute. The supernatent was collected from the cytosolic fraction. The pellet was resuspended in lysis buffer C (20 mM of HEPES (pH 7.4), 400 mM of NaCl, 1 mM of EDTA, 1% of glycerol, 1 mM of DTT, 10 mM of Na3VO4, 50 mM of NaF, 1 mM of PMSF, 1 μg/mL of aprotinin, 1 μg/mL of leupeptin, 1 μg/mL of pepstatin) on ice for 30 minutes. Lysates were centrifuge at 15,000 g at 4° C. for 15 minutes. The supernatent was collected from the nuclear fraction. The protein concentrations in the resultant supernatants were measured with the Bradford reagent, and equal amounts of protein (40 μg) were boiled in Laemmli sample buffer, followed by being resolved by 10 or 15% SDS-PAGE. The proteins were transferred to polyvinylidene fluoride membranes (Immobilon; Millipore, Billerica, Mass.) and then probed overnight with antibodies against JNK, ERK p44/42, p38, NF-κB p65, phospho-JNK, phospho-ERK p44/42, phospho-p38, phospho-NF-κB, (3-actin and histone 3 as indicated (diluted 1:1000). The immunoreactive bands were detected with horseradish peroxidase-conjugated secondary antibodies and visualized by enhanced chemiluminescence.

Molecule | proportion of apoptotic cells (RGC-5 [1]; 12 hour exposure, agmatine 100 μM) | proportion of apoptotic cells (RGC-5 [1]; 24 hours of exposure, 100 μM of agmatine) | proportion of apoptotic cells (RGC-5 [2]; hypoxia 12 hours) | proportion of apoptotic cells (RGC-5 [2]; hypoxia 24 hours) | increase in phospho-NF-κB, nuclear fraction (NF-κB) | increase in total NF-κB expression, cytoplasmic fraction (NF-κB) | total NF-κB and histone 3, nuclear fraction (NF-κB)
N=C(N)NCCCCN [agmatine] | no significant difference | significant decrease in apoptotic cells | no significant difference | significant decrease in apoptotic cells | suppressed | inhibited | no significant changes
BDNF: recombinant human BDNF (R&D System), well-known protective neurotrophin for RGCs, used as comparator | – | – | no significant difference | significant decrease in apoptotic cells | not | not | no significant changes

Source: patent US8084502B2, “Use of agmatine for protection of retinal ganglion cells” (priority 2007, dated 2011)
